Source: ChEMBL document CHEMBL1201862, “PubChem BioAssay data set” (2004)
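Where inhibition never reached the appropriate level, the endpoint shown equals the highest concentration tested. Otherwise, values were interpolated linearly from a five-concentration, 48-hour dose response in 96-well plates. GI50 = concentration required for 50% inhibition of growth.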 Calls of active or inactive are those of the source. Cut-off read from the data, not from the text of the source: active = GI50 up to about 1.1 µM and inactive = higher.

Tests used:
Assay in all cases: DTP human tumour cell line panel, 48 h
OVCAR-5 = test system: OVCAR-5
T47D = test system: T47D
BT-549 = test system: BT-549
NCI-H23 = test system: NCI-H23
HCT-116 = test system: HCT-116
SNB-75 = test system: SNB-75
SK-MEL-28 = test system: SK-MEL-28
RXF 393 = test system: RXF 393
UO-31 = test system: UO-31
MDA-MB-435 = test system: MDA-MB-435
OVCAR-8 = test system: OVCAR-8
MDA-MB-231 = test system: MDA-MB-231
MOLT-4 = test system: MOLT-4
SR = test system: SR
SK-OV-3 = test system: SK-OV-3
A549 = test system: A549
MCF7 = test system: MCF7
ACHN = test system: ACHN
EKVX = test system: EKVX
786-0 = test system: 786-0
NCI-H460 = test system: NCI-H460
SF-295 = test system: SF-295
HT-29 = test system: HT-29
DU-145 = test system: DU-145
HCC 2998 = test system: HCC 2998
SK-MEL-5 = test system: SK-MEL-5
SK-MEL-2 = test system: SK-MEL-2
Hs-578T = test system: Hs-578T
OVCAR-3 = test system: OVCAR-3
SNB-19 = test system: SNB-19
HOP-62 = test system: HOP-62
A498 = test system: A498
LOX IMVI = test system: LOX IMVI
SN12C = test system: SN12C
OVCAR-4 = test system: OVCAR-4
UACC-257 = test system: UACC-257
SW-620 = test system: SW-620
SF-268 = test system: SF-268
U-251 = test system: U-251
HCT-15 = test system: HCT-15
TK-10 = test system: TK-10
UACC-62 = test system: UACC-62
CAKI-1 = test system: CAKI-1
MDA-N = test system: MDA-N
IGROV-1 = test system: IGROV-1
COLO 205 = test system: COLO 205
PC-3 = test system: PC-3
KM12 = test system: KM12
HOP-92 = test system: HOP-92
M14 = test system: M14
K562 = test system: K562
NCI/ADR-RES = test system: NCI/ADR-RES
NCI-H522 = test system: NCI-H522
NCI-H226 = test system: NCI-H226
CCRF-CEM = test system: CCRF-CEM
Malme-3M = test system: Malme-3M
RPMI-8226 = test system: RPMI-8226
SF-539 = test system: SF-539
HL-60 = test system: HL-60

Measured: GI50

COC1C(=O)CCC2(CO2)C1(O)C1(C)OC1CC=C(C)C (stereo not given)
inactive: OVCAR-5 51.5 µM | T47D > 100 µM | BT-549 50.6 µM | NCI-H23 46.7 µM | HCT-116 11.3 µM | SNB-75 69.8 µM | SK-MEL-28 17.3 µM | RXF 393 22.9 µM | UO-31 28.4 µM | MDA-MB-435 24.5 µM | OVCAR-8 30.9 µM | MDA-MB-231 > 100 µM | MOLT-4 25.1 µM | SR 13.9 µM | SK-OV-3 51.6 µM | A549 10.6 µM | MCF7 11.8 µM | ACHN 17.6 µM | EKVX 93.5 µM | 786-0 32.4 µM | NCI-H460 27.3 µM | SF-295 29.8 µM | HT-29 23.1 µM | DU-145 19.5 µM | HCC 2998 17.7 µM | SK-MEL-5 14.7 µM | SK-MEL-2 27.6 µM | Hs-578T 22.1 µM | OVCAR-3 25.2 µM | SNB-19 15 µM | HOP-62 14.7 µM | A498 26.3 µM | LOX IMVI 5.21 µM | SN12C > 100 µM | OVCAR-4 > 100 µM | UACC-257 23.2 µM | SW-620 18.4 µM | SF-268 33.5 µM | U-251 13.9 µM | TK-10 22.9 µM | UACC-62 13.7 µM | CAKI-1 38.1 µM | MDA-N 41 µM | IGROV-1 16.9 µM | COLO 205 16.6 µM | PC-3 28.3 µM | KM12 16.2 µM | HOP-92 25.8 µM | M14 11.1 µM | K562 16.9 µM
19 µM: HCT-15

NCCCCN(CCCN)Cc1ccc2ccccc2c1
> 100 µM: HCT-15
inactive: NCI/ADR-RES > 100 µM | OVCAR-5 28.8 µM | T47D > 100 µM | BT-549 90.4 µM | NCI-H23 25.3 µM | HCT-116 36.7 µM | SNB-75 2.94 µM | SK-MEL-28 > 100 µM | RXF 393 63.4 µM | UO-31 13.7 µM | MDA-MB-435 > 100 µM | NCI-H522 13.5 µM | NCI-H226 21.5 µM | OVCAR-8 39.4 µM | MDA-MB-231 32.4 µM | MOLT-4 34.8 µM | SK-OV-3 96.4 µM | CCRF-CEM 27.1 µM | Malme-3M 51.8 µM | A549 51.9 µM | MCF7 54.1 µM | ACHN 22.8 µM | EKVX 21.3 µM | 786-0 34.2 µM | NCI-H460 15.7 µM | SF-295 44 µM | RPMI-8226 > 100 µM | HT-29 23.3 µM | DU-145 66.7 µM | HCC 2998 10.6 µM | SK-MEL-5 92.7 µM | Hs-578T 11.3 µM | SF-539 30.8 µM | SNB-19 12.9 µM | A498 20.7 µM | LOX IMVI 29.2 µM | HL-60 67.5 µM | SN12C 12.9 µM | OVCAR-4 39.4 µM | UACC-257 > 100 µM | SW-620 > 100 µM | SF-268 12.6 µM | U-251 59 µM | TK-10 > 100 µM | UACC-62 95.7 µM | CAKI-1 13.8 µM | MDA-N 21.3 µM | IGROV-1 25.2 µM | COLO 205 35.2 µM | KM12 27.4 µM | HOP-92 29 µM | M14 57 µM | K562 > 100 µM
